The values that follow come from paper PMC11643450, “Pimozide and Adipic Acid: A New Multicomponent Crystalline Entity for Improved Pharmaceutical Behavior” (Molecules, 2024).

Series [1] can be described thus: Contact angle (wettability) of powder samples with drops of the different fluids. The series is classed as physicochemical. The procedure:
In total, 120 mg of each sample was placed in a cylindrical ring, and the surface was smoothed with a scraper. The Contact Angle Meter DMe-211Plus (NTG Nuova Tecnogalenica, Cernusco, Italy) was used to record the images of a drop (9 μL) of the different fluids once placed in contact with the surface of the samples at progressive times. The contact angles were measured using the software supplied with the apparatus (three replicates).

A short description of series [2]: Solubility at equilibrium, shake flask method with spectrophotometric determination. Type of series: physicochemical. To be noted: thermodynamic from solid, 21 °C. The procedure: The samples were sieved through a 230-mesh grid, 63 μm (Endecotts, London, UK).
An excess sample is placed in the flasks containing the three different fluids and left under stirring. At time intervals, a portion of the solution was taken and filtered on a 0.22 μm filter (Millipore Merck, Darmstadt, Germany). The drug concentration was determined using UV detection (Lambda 25, Perkin-Elmer, Monza, Italy). The test was repeated until equilibrium was reached.

A short description of series [3]: In vitro dissolution test, USP apparatus 2 (paddle). Type of series: physicochemical. On the procedure: For the dissolution tests, the USP apparatus 2, paddle (Erweka DT-D6, Erweka GmbH, Dusseldorf, Germany) was used at 37.0 ± 0.5 °C and 50 rpm (three replicates). In 900 mL of 0.01 N hydrochloric acid pH = 2, which is the medium requested by the USP monograph (Pimozide Tablets, Official Monograph. In The United States Pharmacopeia (USP43-NF38); United States Pharmacopeia Convention, Inc.: Rockville, MD, USA, 2023; p. 3548), it can simulate a fasted stomach environment and, in other two fluids, simulates the following: pH 4.5 phosphate buffer (a condition that simulates the gastric environment in fed conditions) and deionized water (neutral conditions). The dissolution media were prepared according to the reagent and buffer solutions section of the USP [33]. […] The drug concentration was determined using UV detection (Lambda 25, Perkin-Elmer, Monza, Italy), and the data were analyzed using the software provided (Winlab V6 software, Perkin-Elmer, Monza, Italy).

Details of series [4]: method as in doi:10.1016/j.molliq.2015.12.054. Conditions: cited from earlier work.

Converted amounts (≈) assume the structure as drawn.

`O=C(O)CCCCC(=O)O` [AAD, adipic acid]: in series [1] (pH 2), the Wettability result is “poorly wettable”.
Usually solubility stands for the concentration that dissolves in the medium under given conditions. Read a high solubility as much dissolved substance. Take `O=c1[nH]c2ccccc2n1C1CCN(CCCC(c2ccc(F)cc2)c2ccc(F)cc2)CC1` [PMZ, 1-(1-(4,4-bis(p-fluorophenyl)butyl)-4-piperidyl)-2-benzimidazoline]: the solubility in series [2] (aqueous buffer, pH 4.5 (phosphate buffer)) is 6.4 ± 0.2 µg/mL (≈ 13.9 µM); in series [2] (simulated gastric fluid, pH 2.0 (0.01N hydrochloric acid)) it was 175 ± 1.8 µg/mL (≈ 380 µM); in series [2] (H2O (deionized water)) it was 1.4 ± 0.3 µg/mL (≈ 3.03 µM). Besides, the Passage into solution result in series [3] (deionized water (neutral conditions), compared with pH 4.5, 4 mg PMZ) is reported as “further depressed”. In addition, the “Fraction of the dose passed into solution in the first hour” value in series [3] (pH 4.5 phosphate buffer (fed stomach), 4 mg PMZ) is listed as “just a very tiny fraction of the dose”. Further, the Contact angle is reported as ~120 θ in series [1] (deionized water); 4 θ in series [1] (pH 2, after about 3 min); 120 θ in series [1] (pH 2, initial); “about 130 θ” in series [1] (pH 4.5). Besides, the BCS class result in series [4] is recorded as “class II”.
Consider [PMZH]2[adipate] [PMZ:AAD 0.66:0.33ev], for which the Contact angle entry is on record as “less than 100 θ” in series [1] (deionized water) and “less than 90 θ” in series [1] (pH 4.5).
